This passage reports IC50 results from US10450318B2, “CXCR4 receptor antagonists” (BRISTOL-MYERS SQUIBB COMPANY, priority 2015, dated 2019).

pIC50: −log10 of the molar value. Bounds are passed on as bounds.

This test has as its target T1, CXCR4 receptors (Homo sapiens, UniProt P61073).
T1 construct: expressing endogenous CXCR4 receptors; endogenous in cells; host or cells: CCRF-CEM (human T lymphoblast cells)
Description: CXCR4-CEM calcium flux assay, antagonist mode (inhibition of SDF-1α-induced calcium flux). Format: cell-based. As to conditions: inhibition of calcium flux induced by 4 nM SDF-1α in CCRF-CEM cells. How it is done:
Exemplary compounds of the invention were tested for their ability to induce or inhibit calcium flux in CCRF-CEM cells. […] CXCR4-CEM Calcium Flux Assays. […] The cells were then equilibrated to room temperature for 30 minutes before assay. […] The serially diluted compounds were diluted to working concentrations with the same assay buffer to 0.5% DMSO. […] Activity of the compounds to induce calcium flux was monitored by FDSS in the “agonist mode” for 90 sec. For “antagonist mode” assessment, the cells are subsequently incubated for 25 min at room temperature. SDF-1α (R&D System Cat#350-NS/CF) was then added at a final concentration of 4 nM to stimulate the cells. Inhibition of SDF-1α-induced calcium flux was monitored by FDSS6000 for 90 sec. […] After correcting for background, EC50 values were determined. […] Inhibition data for the test compound over a range of concentrations was plotted as percentage inhibition of the test compound as compared to an internal control compound.
(Calcium assays in cells follow changes in intracellular calcium, usually with a dye or a luminescent sensor.)

T1 sequence (P61073 whole entry): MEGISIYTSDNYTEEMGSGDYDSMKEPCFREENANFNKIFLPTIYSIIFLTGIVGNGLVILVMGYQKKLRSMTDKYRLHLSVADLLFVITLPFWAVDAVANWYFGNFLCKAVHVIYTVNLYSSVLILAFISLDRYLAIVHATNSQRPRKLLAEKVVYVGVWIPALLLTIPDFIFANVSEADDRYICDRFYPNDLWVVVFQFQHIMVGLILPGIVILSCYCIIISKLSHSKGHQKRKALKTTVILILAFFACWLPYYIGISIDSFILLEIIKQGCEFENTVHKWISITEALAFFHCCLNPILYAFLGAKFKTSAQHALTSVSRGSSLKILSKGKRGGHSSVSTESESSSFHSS

By pIC50 is commonly meant −log10 of the IC50, conventionally taken in molar units. As for `CN1CC2CN(c3nccc4nc(CN(C)[C@H]5CCCc6cccnc65)cn34)CC2C1` (stereo partly drawn) [Example 81, (8S)-N-methyl-N-((5-(5-methylhexahydropyrrolo[3,4-c]pyrrol-2(1H)-yl)imidazo[1,2-c]pyrimidin-2-yl)methyl)-5,6,7,8-tetrahydroquinolin-8-amine], the pIC50 is 7.49.
The figure for `CN(Cc1cn2c(N3CCNC(c4ccccc4)C3)nccc2n1)[C@H]1CCCc2cccnc21` (single isomer, unassigned) [Example 79] is 7.25; for `CC(=O)N1CCN(c2nccc3nc(CN(C)[C@H]4CCCc5cccnc54)cn23)CC1` [Example 10, (S)-1-(4-(2-((Methyl(5,6,7,8-tetrahydroquinolin-8-yl)amino)methyl)imidazo[1,2-c]pyrimidin-5-yl)piperazin-1-yl)ethanone] it is 5.07; for `CN1CCCC2CN(c3nccc4nc(CN(C)[C@H]5CCCc6cccnc65)cn34)CC21` (stereo partly drawn) [Example 102, (8S)-N-methyl-N-((5-(1-methyloctahydro-6H-pyrrolo[3,4-b]pyridin-6-yl)imidazo[1,2-c]pyrimidin-2-yl)methyl)-5,6,7,8-tetrahydroquinolin-8-amine] it is 6.68.
With `CN(Cc1cn2c(N3CCN(CC(C)(C)C)CC3)nccc2n1)[C@H]1CCCc2cccnc21` [Example 33, (S)-N-({5-[4-(2,2-dimethylpropyl)piperazin-1-yl]imidazo[1,2-c]pyrimidin-2-yl}methyl)-N-methyl-5,6,7,8-tetrahydroquinolin-8-amine], the pIC50 was 6.00.
Consider `CN(Cc1cn2c(N3CCN(Cc4cccc(C#N)c4)CC3)nccc2n1)[C@H]1CCCc2cccnc21` [Example 66, 3-({4-[2-({methyl[(S)-5,6,7,8-tetrahydroquinolin-8-yl]amino}methyl)imidazo[1,2-c]pyrimidin-5-yl]piperazin-1-yl}methyl)benzonitrile], for which the pIC50 is 8.03.
The figure for `CN(Cc1cn2c(N3CCN(Cc4cccnc4)CC3)nccc2n1)[C@H]1CCCc2cccnc21` [Example 28] is 7.96.
As to `CN(Cc1cn2c(N3CCN(CCc4ccccc4)CC3)nccc2n1)[C@H]1CCCc2cccnc21` [Example 18, (S)-N-methyl-N-({5-[4-(2-phenylethyl)piperazin-1-yl]imidazo[1,2-c]pyrimidin-2-yl}methyl)-5,6,7,8-tetrahydroquinolin-8-amine], the pIC50 was 7.85.
Consider “(8S)-N-((5-(3-(dimethylamino)pyrrolidin- 1-yl)imidazo[1,2-c]pyrimidin-2- yl)methyl)-N-methyl-5,6,7,8- tetrahydroquinolin-8-amine [Example 75]”, for which the negative logarithm of the IC50 (pIC50) is 7.96.
The figure for `CN(Cc1cn2c(N3CCN(CC(F)(F)F)CC3)nccc2n1)[C@H]1CCCc2cccnc21` [Example 84, (S)-N-methyl-N-((5-(4-(2,2,2-trifluoroethyl)piperazin-1-yl)imidazo[1,2-c]pyrimidin-2-yl)methyl)-5,6,7,8-tetrahydroquinolin-8-amine] is below 4.80; for `[2H]C([2H])([2H])N1CCN(c2nccc3nc(CN(C)[C@H]4CCCc5cccnc54)cn23)CC1` [Example 17, (S)—N-Methyl-N-((5-(4-(methyl-d3)piperazin-1-yl)imidazo[1,2-c]pyrimidin-2-yl)methyl)-5,6,7,8-tetrahydroquinolin-8-amine] it is 8.43; for `CN(Cc1cn2c(N3CCNC[C@H]3CO)nccc2n1)[C@H]1CCCc2cccnc21` [Example 77, ((S)-1-(2-((methyl((S)-5,6,7,8-tetrahydroquinolin-8-yl)amino)methyl)imidazo[1,2-c]pyrimidin-5-yl)piperazin-2-yl)methanol] it is 6.60.
Consider `CN(Cc1nc2ccnc(N3CCNCC3)n2c1CO)[C@H]1CCCc2cccnc21` [Example 6, (S)-(2-((Methyl(5,6,7,8-tetrahydroquinolin-8-yl)amino)methyl)-5-(piperazin-1-yl)imidazo[1,2-c]pyrimidin-3-yl)methanol], for which the negative-log IC50 (pIC50) was 8.42.
The figure for `COc1cc2nc(CN(C)[C@H]3CCCc4cccnc43)cn2c(N2CCN(C)CC2)n1` [Example 105, (S)—N-((7-Methoxy-5-(4-methylpiperazin-1-yl)imidazo[1,2-c]pyrimidin-2-yl)methyl)-N-methyl-5,6,7,8-tetrahydroquinolin-8-amine] is 7.00; for `CN(Cc1cn2c(N3CCN(Cc4ccc(C(F)(F)F)cc4)CC3)nccc2n1)[C@H]1CCCc2cccnc21` [Example 64, (S)-N-methyl-N-{[5-(4-{[4-(trifluoromethyl)phenyl]methyl}piperazin-1-yl)imidazo[1,2-c]pyrimidin-2-yl]methyl}-5,6,7,8-tetrahydroquinolin-8-amine] it is 7.96.
The figure for `CN(Cc1cn2c(N3CCN(S(=O)(=O)c4cccs4)CC3)nccc2n1)[C@H]1CCCc2cccnc21` [Example 62, (S)-N-methyl-N-({5-[4-(thiophene-2-sulfonyl)piperazin-1-yl]imidazo[1,2-c]pyrimidin-2-yl}methyl)-5,6,7,8-tetrahydroquinolin-8-amine] is 4.71.
On to `CN(Cc1cn2c(N3CCN4C[C@@H](F)C[C@H]4C3)nccc2n1)[C@H]1CCCc2cccnc21` [Example 87, (S)-N-((5-((7S,8aS)-7-fluorohexahydropyrrolo[1,2-a]pyrazin-2(1H)-yl)imidazo[1,2-c]pyrimidin-2-yl)methyl)-N-methyl-5,6,7,8-tetrahydroquinolin-8-amine], for which the pIC50 is 6.70.
For the compound `CN(Cc1cn2c(N3CCN(Cc4cccn4C)CC3)nccc2n1)[C@H]1CCCc2cccnc21` [Example 56, (S)-N-methyl-N-[(5-{4-[(1-methyl-1H-pyrrol-2-yl)methyl]piperazin-1-yl}imidazo[1,2-c]pyrimidin-2-yl)methyl]-5,6,7,8-tetrahydroquinolin-8-amine], the pIC50 was 8.34.
`CN(Cc1cn2c(N3CCN(Cc4ccc(O)cc4)CC3)nccc2n1)[C@H]1CCCc2cccnc21` [Example 24, 4-({4-[2-({methyl[(S)-5,6,7,8-tetrahydroquinolin-8-yl]amino}methyl)imidazo[1,2-c]pyrimidin-5-yl]piperazin-1-yl}methyl)phenol]: the pIC50 was 7.96.
The figure for `CN(Cc1cn2c(N3CCN(Cc4ccco4)CC3)nccc2n1)[C@H]1CCCc2cccnc21` [Example 54, (S)-N-({5-[4-(furan-2-ylmethyl)piperazin-1-yl]imidazo[1,2-c]pyrimidin-2-yl}methyl)-N-methyl-5,6,7,8-tetrahydroquinolin-8-amine] is 8.25; for `CC(C)N1CCN(c2nccc3nc(CN(C)[C@H]4CCCc5cccnc54)cn23)CC1` [Example 20, (S)-N-methyl-N-({5-[4-(propan-2-yl)piperazin-1-yl]imidazo[1,2-c]pyrimidin-2-yl}methyl)-5,6,7,8-tetrahydroquinolin-8-amine] it is 8.02.
The figure for `C[C@@H]1CN(c2nccc3nc(CN(C)[C@H]4CCCc5cccnc54)cn23)C[C@H](C)N1` [Example 73, (S)—N-((5-((3S,5R)-3,5-Dimethylpiperazin-1-yl)imidazo[1,2-c]pyrimidin-2-yl)methyl)-N-methyl-5,6,7,8-tetrahydroquinolin-8-amine] is 6.92.
The figure for `CN(Cc1cn2c(N3CCN(Cc4cccc(Oc5ccccc5)c4)CC3)nccc2n1)[C@H]1CCCc2cccnc21` [Example 57, (8S)-N-methyl-N-[(5-{4-[(3-phenoxyphenyl)methyl]piperazin-1-yl}imidazo[1,2-c]pyrimidin-2-yl)methyl]-5,6,7,8-tetrahydroquinolin-8-amine] is 7.55.
